{"source": "patent US7666845B2", "about": "“Compounds having inhibitory activity against sodium-dependent glucose transporter” (Janssen Pharmaceutica N.V., priority 2006, dated 2010)", "biological_target": "T1, human SGLT2 (Homo sapiens, UniProt P31639)", "T1 construct": "expressed in transfected cells; host or cells: CHOK1 (Chinese hamster ovary) cells under Geneticin selection", "T1 sequence (P31639 1-672)": "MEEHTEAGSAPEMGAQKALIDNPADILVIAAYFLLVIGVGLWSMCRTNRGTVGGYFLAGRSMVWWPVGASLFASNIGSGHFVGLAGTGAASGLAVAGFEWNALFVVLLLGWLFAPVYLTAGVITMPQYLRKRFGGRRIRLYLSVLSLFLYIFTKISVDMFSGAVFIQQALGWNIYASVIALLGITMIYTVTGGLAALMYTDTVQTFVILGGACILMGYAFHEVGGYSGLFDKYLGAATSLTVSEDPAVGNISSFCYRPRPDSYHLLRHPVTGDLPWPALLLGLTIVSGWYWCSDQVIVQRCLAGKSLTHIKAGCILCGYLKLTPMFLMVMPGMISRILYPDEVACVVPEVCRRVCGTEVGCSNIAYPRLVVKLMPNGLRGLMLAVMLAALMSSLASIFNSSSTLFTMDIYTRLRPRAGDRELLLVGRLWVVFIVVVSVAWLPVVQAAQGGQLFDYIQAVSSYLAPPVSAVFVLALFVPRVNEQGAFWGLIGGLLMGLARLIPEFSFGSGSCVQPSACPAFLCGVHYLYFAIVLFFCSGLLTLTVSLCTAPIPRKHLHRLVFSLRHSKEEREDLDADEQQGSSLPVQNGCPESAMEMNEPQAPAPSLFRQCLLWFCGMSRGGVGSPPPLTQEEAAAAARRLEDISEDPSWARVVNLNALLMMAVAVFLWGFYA", "experiment": "14C-AMG uptake in CHOK1 cells expressing human SGLT2", "assay_type": "cell-based", "conditions": "14C-AMG 0.5 mM, 2 hours at 37° C., read-out: Human SGLT2 inhibition IC50", "procedure": "CHOK1 cells expressing human SGLT2 were seeded in 96-well white walled plates at a density of 50,000 cells/well in F-12 nutrient mixture (Ham's F-12) containing 10% fetal bovine serum, 400 μg/ml Geneticin, 50 units/ml sodium penicillin G (Gibco-BRL) and 50 μg/ml streptomycin sulfate. After 2 days of culture at 37° C. in a humidified atmosphere containing 5% CO2, cells were washed once with the assay buffer (137 mM NaCl, 5 mM KCl, 1 mM CaCl2, 1 mM MgCl2, 50 mM Hepes, and 20 mM Tris, pH 7.4) and incubated with 80 μl of the buffer containing test compounds for 10 min at 37° C. Test compounds were dissolved in DMSO. The final concentration of DMSO was 0.5%. The transport reaction was initiated by addition of 20 μl [^14C]-methyl-α-D-glucopyranoside (^14C-AMG, 0.08 uCi per well) solution (final concentration, 0.5 mM). After incubation for 2 hours at 37° C., the uptake was stopped by aspiration of the incubation mixture, the cells were washed three times with ice-cold PBS. Then, cells were solubilized with 0.3 N NaOH and scintalin was added for determination of radioactivity by a liquid scintillation counter. Nonspecific AMG uptake was defined as that which occurred in the presence of 100 μM of phlorizin, a specific inhibitor of sodium-dependent glucose cotransporter. Specific uptake was normalized for the protein concentrations measured by the method of Bradford. […]"}
{"smiles": "Cc1ccc(C2OC(C(=O)O)C(O)C(O)C2O)cc1Cc1ccc(-c2ccc(F)cc2)s1", "note": "(stereo not shown) [Compound 1, 6-{3-[5-(4-Fluoro-phenyl)-thiophen-2-ylmethyl]-4-methyl-phenyl}-3,4,5-trihydroxy-tetrahydro-pyran-2-carboxylic acid]", "values": [{"measurement": "IC50", "result": 1100, "unit": "nM"}]}
